Converted amounts (≈) assume the structure as drawn.
Key:
Test in all cases: MIC and MBC testing, broth microdilution
[1] = tested on: E. faecium ATCC 35667; type: cell-based, Enterococcus faecium; conditions: Enterococcus faecium, ATCC35667, E. faecium ATCC 35667; for MIC: 18 h, read-out: MIC; for MBC: read-out: MBC
Summary of the method: (§1)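 Controls comprised levofloxacin (positive) and 0.1% DMSO (negative). Compounds, serially halved in MH broth, met log-phase cells pre-diluted to 1 × 10^6 CFU/mL; after an 18 h, 37 °C incubation, absence of visible growth defined the MIC, triplicate per concentration.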

[2] = tested on: E. coli ATCC 25922; type: cell-based, Escherichia coli; conditions: Escherichia coli; for MIC: ATCC25922, 18 h, read-out: MIC; for MBC: ATCC25922, read-out: MBC
Summary of the method: as §1

[3] = tested on: S. aureus ATCC 29213; type: cell-based, Staphylococcus aureus; conditions: Staphylococcus aureus, ATCC29213, S. aureus ATCC 29213; for MIC: 18 h, read-out: MIC; for MBC: read-out: MBC
Summary of the method: as §1

[4] = tested on: A. baumannii ATCC 19606; type: cell-based, Acinetobacter baumannii; conditions: Acinetobacter baumannii; for MIC: ATCC19606, 18 h, read-out: MIC; for MBC: ATCC19606, read-out: MBC
Summary of the method: as §1

[5] = tested on: clinical S. aureus isolate LMY48; type: cell-based, Staphylococcus aureus; conditions: Staphylococcus aureus, LMY48; for MIC: 18 h, read-out: MIC; for MBC: read-out: MBC
Summary of the method: (§2)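 Log-phase cultures, adjusted to 1 × 10^6 CFU/mL in MH broth, are exposed to twofold serial compound dilutions and held at 37 °C for 18 h. Triplicate per concentration; both inhibitory and bactericidal endpoints are taken.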

[6] = tested on: clinical S. aureus isolate LMY47; type: cell-based, Staphylococcus aureus; conditions: Staphylococcus aureus, LMY47; for MIC: 18 h, read-out: MIC; for MBC: read-out: MBC
Summary of the method: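 Triplicate broth microdilution: MH broth, serial 2× dilution of compounds dissolved in DMSO, 1 × 10^6 CFU/mL bacteria grown to log phase, 18 h at 37 °C, followed by MBC determination.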

[7] = tested on: MRSA-1; type: cell-based, Staphylococcus aureus; conditions: Staphylococcus aureus, MRSA-1; for MIC: 18 h, read-out: MIC; for MBC: read-out: MBC
Summary of the method: as §2

[8] = tested on: clinical S. aureus isolate LMY45; type: cell-based, Staphylococcus aureus; conditions: Staphylococcus aureus, LMY45; for MIC: 18 h, read-out: MIC; for MBC: read-out: MBC
Summary of the method: as §2

[9] = tested on: MRSA-2; type: cell-based, Staphylococcus aureus; conditions: Staphylococcus aureus, MRSA-2; for MIC: 18 h, read-out: MIC; for MBC: read-out: MBC
Summary of the method: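 Strains grown to logarithmic phase were diluted to 1 × 10^6 CFU/mL, combined with compound two-fold dilution series in MH broth, and incubated at 37 °C for 18 h. MIC and MBC were then recorded, with triplicate wells per concentration.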

[10] = tested on: clinical S. aureus isolate LMY46; type: cell-based, Staphylococcus aureus; conditions: Staphylococcus aureus, LMY46; for MIC: 18 h, read-out: MIC; for MBC: read-out: MBC
Summary of the method: as §2

[11] = tested on: P. aeruginosa ATCC 27853; type: cell-based, Pseudomonas aeruginosa; conditions: Pseudomonas aeruginosa; for MIC: ATCC27853, 18 h, read-out: MIC; for MBC: ATCC27853, read-out: MBC
Summary of the method: as §1

[12] = tested on: K. pneumoniae ATCC 700603; type: cell-based, Klebsiella pneumoniae; conditions: Klebsiella pneumoniae; for MIC: ATCC700603, 18 h, read-out: MIC; for MBC: ATCC700603, read-out: MBC
Summary of the method: as §1

Row | Compound | MIC [1] | MBC [1] | MIC [2] | MIC [3] | MBC [3] | MIC [4] | MIC [5] | MBC [5] | MIC [6] | MBC [6] | MIC [7] | MBC [7] | MIC [8] | MBC [8] | MIC [9] | MBC [9] | MIC [10] | MBC [10] | MIC [11] | MIC [12] | further results
1 | [H]/N=C(\N)NN=C1CCCc2cc(OCc3cccc(-c4ccccc4)c3)ccc21 [Compound 1W, (E)-2-(6-([1,1’-biphenyl]-3-ylmethoxy)-3,4-dihydronaphthalen-1(2H)-ylidene)hydrazine-1-carboximidamide] | 2 µg/mL (≈ 5.2 µM) | 16 µg/mL (≈ 41.6 µM) | 32 µg/mL (≈ 83.2 µM) | 2 µg/mL (≈ 5.2 µM) | 16 µg/mL (≈ 41.6 µM) | 32 µg/mL (≈ 83.2 µM) | 2 µg/mL (≈ 5.2 µM) | 4 µg/mL (≈ 10.4 µM) | 2 µg/mL (≈ 5.2 µM) | 8 µg/mL (≈ 20.8 µM) | 4 µg/mL (≈ 10.4 µM) | 32 µg/mL (≈ 83.2 µM) | 2 µg/mL (≈ 5.2 µM) | 8 µg/mL (≈ 20.8 µM) | 2 µg/mL (≈ 5.2 µM) | 4 µg/mL (≈ 10.4 µM) | 2 µg/mL (≈ 5.2 µM) | 8 µg/mL (≈ 20.8 µM) | > 32 µg/mL | > 32 µg/mL | MBC [2]: 32 µg/mL (≈ 83.2 µM); MBC [4]: 32 µg/mL (≈ 83.2 µM)
2 | [H]/N=C(\N)NN=C1CCCc2cc(OCCCCC)ccc21 [Compound 2B, (E)-2-(6-(pentyloxy)-3,4-dihydronaphthalen-1(2H)-ylidene)hydrazine-1-carboximidamide] | 4 µg/mL (≈ 13.9 µM) | 16 µg/mL (≈ 55.5 µM) | 4 µg/mL (≈ 13.9 µM) | 1 µg/mL (≈ 3.47 µM) | 8 µg/mL (≈ 27.7 µM) | 8 µg/mL (≈ 27.7 µM) | 2 µg/mL (≈ 6.93 µM) | 2 µg/mL (≈ 6.93 µM) | 4 µg/mL (≈ 13.9 µM) | 8 µg/mL (≈ 27.7 µM) | 32 µg/mL (≈ 111 µM) | 32 µg/mL (≈ 111 µM) | 8 µg/mL (≈ 27.7 µM) | 16 µg/mL (≈ 55.5 µM) | 4 µg/mL (≈ 13.9 µM) | 4 µg/mL (≈ 13.9 µM) | 8 µg/mL (≈ 27.7 µM) | 16 µg/mL (≈ 55.5 µM) | 16 µg/mL (≈ 55.5 µM) | 8 µg/mL (≈ 27.7 µM) | MBC [2]: 8 µg/mL (≈ 27.7 µM); MBC [4]: 8 µg/mL (≈ 27.7 µM); MBC [11]: 32 µg/mL (≈ 111 µM); MBC [12]: 8 µg/mL (≈ 27.7 µM)
3 | [H]/N=C(\N)NN=C1CCCc2cc(OCCCCCC)ccc21 [Compound 2C, (E)-2-(6-(hexyloxy)-3,4-dihydronaphthalen-1(2H)-ylidene)hydrazine-1-carboximidamide] | 2 µg/mL (≈ 6.61 µM) | 8 µg/mL (≈ 26.5 µM) | 4 µg/mL (≈ 13.2 µM) | 1 µg/mL (≈ 3.31 µM) | 8 µg/mL (≈ 26.5 µM) | 4 µg/mL (≈ 13.2 µM) | 4 µg/mL (≈ 13.2 µM) | 32 µg/mL (≈ 106 µM) | 2 µg/mL (≈ 6.61 µM) | 8 µg/mL (≈ 26.5 µM) | 4 µg/mL (≈ 13.2 µM) | 16 µg/mL (≈ 52.9 µM) | 8 µg/mL (≈ 26.5 µM) | 32 µg/mL (≈ 106 µM) | 2 µg/mL (≈ 6.61 µM) | 4 µg/mL (≈ 13.2 µM) | 8 µg/mL (≈ 26.5 µM) | 16 µg/mL (≈ 52.9 µM) | 8 µg/mL (≈ 26.5 µM) | 8 µg/mL (≈ 26.5 µM) | MBC [2]: 4 µg/mL (≈ 13.2 µM); MBC [4]: 4 µg/mL (≈ 13.2 µM); MBC [11]: 16 µg/mL (≈ 52.9 µM); MBC [12]: 8 µg/mL (≈ 26.5 µM)
4 | [H]/N=C(\N)NN=C1CCCc2cc(OCCCCCCCC)ccc21 [Compound 2E, (E)-2-(6-(octyloxy)-3,4-dihydronaphthalen-1(2H)-ylidene)hydrazine-1-carboximidamide] | 2 µg/mL (≈ 6.05 µM) | 4 µg/mL (≈ 12.1 µM) | 4 µg/mL (≈ 12.1 µM) | 2 µg/mL (≈ 6.05 µM) | 2 µg/mL (≈ 6.05 µM) | 8 µg/mL (≈ 24.2 µM) | 1 µg/mL (≈ 3.03 µM) | 2 µg/mL (≈ 6.05 µM) | 2 µg/mL (≈ 6.05 µM) | 4 µg/mL (≈ 12.1 µM) | 1 µg/mL (≈ 3.03 µM) | 8 µg/mL (≈ 24.2 µM) | 1 µg/mL (≈ 3.03 µM) | 4 µg/mL (≈ 12.1 µM) | 1 µg/mL (≈ 3.03 µM) | 2 µg/mL (≈ 6.05 µM) | 1 µg/mL (≈ 3.03 µM) | 4 µg/mL (≈ 12.1 µM) | 32 µg/mL (≈ 96.8 µM) | > 32 µg/mL | MBC [2]: 16 µg/mL (≈ 48.4 µM); MBC [4]: 32 µg/mL (≈ 96.8 µM); MBC [11]: > 32 µg/mL
5 | [H]/N=C(\N)NN=C1CCCc2cc(OCCCCCCCCC)ccc21 [Compound 2F, (E)-2-(6-(nonyloxy)-3,4-dihydronaphthalen-1(2H)-ylidene)hydrazine-1-carboximidamide] | 2 µg/mL (≈ 5.81 µM) | 4 µg/mL (≈ 11.6 µM) | > 32 µg/mL | 2 µg/mL (≈ 5.81 µM) | 8 µg/mL (≈ 23.2 µM) | > 32 µg/mL | 1 µg/mL (≈ 2.9 µM) | 2 µg/mL (≈ 5.81 µM) | 2 µg/mL (≈ 5.81 µM) | 8 µg/mL (≈ 23.2 µM) | 2 µg/mL (≈ 5.81 µM) | 2 µg/mL (≈ 5.81 µM) | 2 µg/mL (≈ 5.81 µM) | 4 µg/mL (≈ 11.6 µM) | 1 µg/mL (≈ 2.9 µM) | 2 µg/mL (≈ 5.81 µM) | 2 µg/mL (≈ 5.81 µM) | 4 µg/mL (≈ 11.6 µM) | > 32 µg/mL | > 32 µg/mL | 
6 | [H]/N=C(\N)NN=C1CCCc2cc(OCCCCCCCCCC)ccc21 [Compound 2G, (E)-2-(6-(decyloxy)-3,4-dihydronaphthalen-1(2H)-ylidene)hydrazine-1-carboximidamide] | 2 µg/mL (≈ 5.58 µM) | 8 µg/mL (≈ 22.3 µM) | > 32 µg/mL | 2 µg/mL (≈ 5.58 µM) | 8 µg/mL (≈ 22.3 µM) | > 32 µg/mL | 2 µg/mL (≈ 5.58 µM) | 4 µg/mL (≈ 11.2 µM) | 2 µg/mL (≈ 5.58 µM) | 2 µg/mL (≈ 5.58 µM) | 4 µg/mL (≈ 11.2 µM) | 16 µg/mL (≈ 44.6 µM) | 4 µg/mL (≈ 11.2 µM) | 16 µg/mL (≈ 44.6 µM) | 4 µg/mL (≈ 11.2 µM) | 4 µg/mL (≈ 11.2 µM) | 4 µg/mL (≈ 11.2 µM) | 8 µg/mL (≈ 22.3 µM) | > 32 µg/mL | > 32 µg/mL | 
7 | [H]/N=C(\N)NN=C1CCCc2cc(OCCCCCCCCCCC)ccc21 [Compound 2H, (E)-2-(6-(undecyloxy)-3,4-dihydronaphthalen-1(2H)-ylidene)hydrazine-1-carboximidamide] | 4 µg/mL (≈ 10.7 µM) | 8 µg/mL (≈ 21.5 µM) | > 32 µg/mL | > 32 µg/mL |  | > 32 µg/mL | 4 µg/mL (≈ 10.7 µM) | 4 µg/mL (≈ 10.7 µM) | 2 µg/mL (≈ 5.37 µM) | 16 µg/mL (≈ 42.9 µM) | 4 µg/mL (≈ 10.7 µM) | 16 µg/mL (≈ 42.9 µM) | 4 µg/mL (≈ 10.7 µM) | 8 µg/mL (≈ 21.5 µM) | 4 µg/mL (≈ 10.7 µM) | 16 µg/mL (≈ 42.9 µM) | 2 µg/mL (≈ 5.37 µM) | 16 µg/mL (≈ 42.9 µM) | > 32 µg/mL | > 32 µg/mL | 

From paper PMC12250302, “Synthesis, Antimicrobial Activities, and Model of Action of Novel Tetralone Derivatives Containing Aminoguanidinium Moiety” (International Journal of Molecular Sciences, 2025)
